From US6410740B1, “Heterocyclylmethyl-substituted pyrazol derivatives” (Bayer Aktiengesellschaft, priority 1996, dated 2002) come the findings set out here.

Where two headings read alike, the source gives them in different places. Where only a bound is given, the exact number is not on record here.

In general, IC50 refers to the concentration needed to halve the response being measured.

The target of assay [1] is T1, soluble guanylate cyclase (Sus scrofa, UniProt A0A4X1U7N1+A0ACM8Q7I6).
T1 construct: endogenous in cells; host or cells: primary endothelial cells from pig aorta
T1 sequence (A0A4X1U7N1 1-619): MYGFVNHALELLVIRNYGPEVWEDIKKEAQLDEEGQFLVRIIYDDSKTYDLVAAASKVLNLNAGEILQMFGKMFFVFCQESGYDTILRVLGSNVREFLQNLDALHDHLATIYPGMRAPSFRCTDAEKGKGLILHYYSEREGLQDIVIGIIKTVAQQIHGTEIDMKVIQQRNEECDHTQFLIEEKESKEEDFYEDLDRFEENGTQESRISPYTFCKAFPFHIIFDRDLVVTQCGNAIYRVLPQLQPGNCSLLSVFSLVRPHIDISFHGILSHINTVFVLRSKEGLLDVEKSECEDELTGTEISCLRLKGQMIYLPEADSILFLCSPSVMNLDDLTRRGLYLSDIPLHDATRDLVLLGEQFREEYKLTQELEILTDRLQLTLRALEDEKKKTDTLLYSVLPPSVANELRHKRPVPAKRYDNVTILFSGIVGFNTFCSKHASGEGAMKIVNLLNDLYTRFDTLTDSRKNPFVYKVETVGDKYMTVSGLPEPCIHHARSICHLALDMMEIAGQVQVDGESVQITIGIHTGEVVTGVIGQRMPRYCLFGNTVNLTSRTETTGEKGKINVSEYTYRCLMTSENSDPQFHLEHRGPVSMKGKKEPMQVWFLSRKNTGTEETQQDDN
T1 sequence (A0ACM8Q7I6 1-688): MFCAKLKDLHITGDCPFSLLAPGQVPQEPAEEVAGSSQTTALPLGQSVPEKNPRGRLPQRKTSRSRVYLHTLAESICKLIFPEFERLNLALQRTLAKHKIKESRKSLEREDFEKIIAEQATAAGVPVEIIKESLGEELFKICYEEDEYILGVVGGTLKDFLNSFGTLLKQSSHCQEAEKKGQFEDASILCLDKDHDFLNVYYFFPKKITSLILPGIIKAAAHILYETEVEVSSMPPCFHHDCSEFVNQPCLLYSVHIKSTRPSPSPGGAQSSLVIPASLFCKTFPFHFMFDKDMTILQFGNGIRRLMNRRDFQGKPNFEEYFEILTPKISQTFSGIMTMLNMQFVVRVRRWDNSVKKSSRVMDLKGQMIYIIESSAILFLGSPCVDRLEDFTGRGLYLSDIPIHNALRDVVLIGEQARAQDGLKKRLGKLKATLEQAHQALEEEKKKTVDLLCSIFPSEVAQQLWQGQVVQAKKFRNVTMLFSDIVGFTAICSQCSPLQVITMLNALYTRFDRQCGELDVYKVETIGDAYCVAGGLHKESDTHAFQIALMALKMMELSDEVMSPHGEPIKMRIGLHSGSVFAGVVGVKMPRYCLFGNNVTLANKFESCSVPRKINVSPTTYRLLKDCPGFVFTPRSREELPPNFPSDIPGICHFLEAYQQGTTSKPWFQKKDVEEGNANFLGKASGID
Description: Stimulation of soluble guanylate cyclase in primary endothelial cells (intracellular cGMP, radioimmunological). It counts as cell-based. Particulars: test substance 1 μM, 10-minute incubation, primary pig aortic endothelial cells, with or without SNP 1 μM (not stated which); for activation at 1 µM: 10 min, read-out: % increase in cGMP. How it is done:
Stimulation of Soluble Guanylate Cyclase in Primary Endothelial Cells
(§1) Primary endothelial cells were isolated from pig aortas by treatment with collagenase solution. The cells were then cultured in a culture medium until confluence was reached. For the investigations, the cells were subjected to passaging, sown in cell culture plates and subcultured until confluence was reached. To stimulate the endothelial guanylate cyclase, the culture medium was suctioned off and the cells were washed once with Ringer's solution and incubated in stimulation buffer with or without an NO donor (sodium nitroprusside, SNP, 1 μM). Thereafter, the test substances (final concentration 1 μM) were pipetted onto the cells. At the end of the 10-minute incubation period, the buffered solution was suctioned off and the cells were lysed at −20° C. for 16 hours. The intracellular cGMP was then determined radioimmunologically.
as §1, with “sucked” for “suctioned”
as §1, with “without” for “without an”, “buffer” for “buffered”

In assay [2] the test system is rabbit aortic rings precontracted with phenylephrine. In words: Vessel-relaxing action in vitro on isolated aortic rings precontracted with phenylephrine. To be noted: rabbit aorta rings, phenylephrine contraction. How it is done:
Vessel-relaxing Action in vitro
Rings 1.5 mm wide of an aorta isolated from a rabbit are introduced individually, under pretension, in 5 ml organ baths with Krebs-Henseleit solution warmed to 37° C. and gassed with carbogen. The contraction force is amplified and digitalized and recorded in parallel on a line recorder. To generate a contraction, phenylephrine is added cumulatively to the bath in an increasing concentration.
After several control cycles, the substance to be investigated is investigated in each further pass in each case in an increasing dosage, and a comparison is made with the level of the contraction achieved in the last preliminary pass. The concentration necessary to reduce the level of the control value by 50% (IC50) is calculated from this. The standard application volume is 5 μl.
After several control cycles, the substance to be investigated is investigated in each further pass in each case in an increasing dosage, and a comparison is made with the level of the contraction achieved in the last preliminary pass. The concentration necessary to reduce the level of the control value by 50% (IC50) is calculated from this.
The standard application volume is 5 μl.

The mark [3] stands for this setting: Oryctolagus cuniculus, embodiment II.
[4] abbreviates: Oryctolagus cuniculus, embodiment III.

On to `OCc1cccc(-c2nn(Cc3ccccc3)c3ccccc23)n1` [II-36, 1-Benzyl-3-(6-hydroxymethyl-2-pyridyl)indazole], for which, in assay [1] (embodiment II), the activation at 1 µM worked out at 225%. In assay [2] (setting [3]), this compound registered an IC50 of 13 µM. The matching figures for `Cc1cnc(-c2nn(Cc3ccccc3)c3ccccc23)nc1C` [II-38, 1-Benzyl-3-(4,5-dimethyl-2-pyrimidyl)indazole]: more than 1000% and 11 µM. The matching figures for `c1ccc(Cn2nc(-c3ncccn3)c3ccccc32)cc1` [II-39]: 909% and 11 µM. The like results for `Fc1ccccc1Cn1nc(-c2ncccn2)c2ccccc21` [II-40] were, in that order, more than 1000% and 24 µM. Consider `N#Cc1ccccc1Cn1nc(-c2ncccn2)c2ccccc21` [II-41], for which, in assay [1] (embodiment II), the activation at 1 µM was found to be 557%. This compound also gave an IC50 in assay [2] (setting [3]) of 13 µM. The matching figures for `Cc1ccnc(-c2nn(Cc3ccccc3)c3ccccc23)n1` [II-42]: 611% and 10 µM. As for `Cc1cnc(-c2nn(Cc3ccccc3F)c3ccccc23)nc1C` [II-43], in assay [1] (embodiment II), the activation at 1 µM was more than 1000%. Same read-out and setting: the value for `Cc1cnc(-c2nn(Cc3ccccc3C#N)c3ccccc23)nc1C` [II-44] was more than 1000%; that for `CCOC(OCC)c1nc(-c2nn(Cc3ccccc3)c3ccccc23)ncc1C` [II-45] was 326%. In the case of `Cc1nc(-c2nn(Cc3ccccc3)c3ccccc23)nc(C)c1C` [II-46], the activation at 1 µM in assay [1] (embodiment II) came out at 390%.

With `Cc1nc(-c2nn(Cc3ccccc3)c3ccccc23)nc(C)c1Cl` [II-47], the activation at 1 µM in assay [1] (embodiment II) worked out at 240%. Take `CNc1nc(-c2nn(Cc3ccccc3)c3ccccc23)ncc1Cl` [II-48]: the activation at 1 µM in assay [1] (embodiment II) is more than 1000%. This compound returned an IC50 in assay [2] (setting [3]) of 13 µM. Turning to `N#Cc1cnc(-c2nn(Cc3ccccc3)c3ccccc23)nc1N` [II-49], the activation at 1 µM in assay [1] (embodiment II) is more than 1000%. In assay [2] (setting [3]), this compound returned an IC50 of 65 µM.

For the compound `Clc1nccc(-c2nn(Cc3ccccc3)c3ccccc23)n1` [II-50], in assay [1] (embodiment II), the activation at 1 µM amounted to 116%. For the same compound, in assay [2] (setting [3]), the IC50 is more than 31 µM. `Cc1cc(-c2nn(Cc3ccccc3)c3ccccc23)nc(Cl)n1` [II-51] showed an IC50 in assay [2] (setting [3]) of more than 30 µM.

With `OCCNc1nccc(-c2nn(Cc3ccccc3)c3ccccc23)n1` [II-52], the activation at 1 µM in assay [1] (embodiment II) amounted to 397%. The same compound returned an IC50 in assay [2] (setting [3]) of 14 µM.

Regarding `Nc1nccc(-c2nn(Cc3ccccc3)c3ccccc23)n1` [II-53], the activation at 1 µM in assay [1] (embodiment II) worked out at 428%. The IC50 in assay [2] (setting [3]) is 18 µM.

`c1ccc(Cn2nc(-c3cnccn3)c3ccccc32)cc1` [II-55] yielded an IC50 in assay [2] (setting [3]) of more than 35 µM. For the compound `Cc1cncc(-c2nn(Cc3ccccc3)c3ccccc23)n1` [II-56], the activation at 1 µM in assay [1] (embodiment II) was 233%. Further, in assay [2] (setting [3]), the IC50 is more than 33 µM.

As to `c1ccc(Cn2nc(-c3ccccn3)c3ccccc32)cc1` [II-58], the activation at 1 µM in assay [1] (embodiment II) is 271%. Turning to `Cc1cccc(-c2nn(Cc3ccccc3)c3ccccc23)n1` [II-59], the activation at 1 µM in assay [1] (embodiment II) is 268%. The same compound returned a half-inhibitory concentration (IC50) in assay [2] (setting [3]) of more than 33 µM.

The compound `Cc1cc(C)c(C#N)c(-c2nn(Cc3ccccc3)c3ccccc23)n1` [II-60] yielded an IC50 in assay [2] (setting [3]) of more than 30 µM. On the same count and under the same terms, the value for `Cc1cc(Cl)cc(-c2nn(Cc3ccccc3)c3ccccc23)n1` [II-61] was more than 30 µM. `Cc1nc(-c2nn(Cc3ccccc3)c3ccccc23)oc1CO` [III-75]: in assay [1] (embodiment III), the activation at 1 µM is more than 1000%. In assay [2] (setting [4]), the IC50 was 2.2 µM. Consider `OCc1nnc(-c2nn(Cc3ccccc3F)c3ccccc23)o1` [III-76], for which, in assay [1] (embodiment III), the “% increase in cGMP” value stood at 397%. Besides, in assay [2] (embodiment III), the IC50 worked out at 7.4 µM.

Regarding `CC(=O)OCc1oc(-c2nn(Cc3ccccc3)c3ccccc23)nc1C` [III-77], the activation at 1 µM in assay [1] (embodiment III) was more than 1000%. The IC50 in assay [2] (setting [4]) was 8.3 µM. The matching figures for `CC(=O)OCc1nnc(-c2nn(Cc3ccccc3F)c3ccccc23)o1` [III-78]: 223% and 10 µM. On to `OCc1nnc(-c2nn(Cc3ccccc3F)c3ccccc23)o1` [III-79], for which, in assay [1] (embodiment III), the “% increase in cGMP” value is given as 124%. In assay [2] (setting [4]), this compound gave an IC50 of 13 µM. For the compound `Cc1coc(-c2nn(Cc3ccccc3F)c3ccccc23)n1` [III-80], in assay [1] (embodiment III), the activation at 1 µM was more than 1000%. The same compound showed an IC50 in assay [2] (setting [4]) of 3.6 µM.

In the case of `OCc1nnc(-c2nn(Cc3ccccc3)c3ccccc23)o1` [III-81], the activation at 1 µM in assay [1] (embodiment III) was 110%. For the same compound, the IC50 in assay [2] (setting [4]) was determined as 12 µM. For `CCc1coc(-c2nn(Cc3ccccc3)c3ccccc23)n1` [III-88], the IC50 in assay [2] (setting [4]) was 7.1 µM. On the same count and under the same terms, in the case of `COCc1oc(-c2nn(Cc3ccccc3)c3ccccc23)nc1C` [III-90] it was 4.1 µM.

Take `CCOCc1oc(-c2nn(Cc3ccccc3)c3ccccc23)nc1C` [III-91]: in assay [1] (embodiment III), the activation at 1 µM was found to be 479%. On the same count and under the same terms, in the case of `OCc1cnc(-c2nn(Cc3ccccc3)c3ccccc23)s1` [III-92] it was 319%; in that of `CCOC(=O)c1coc(-c2nn(Cc3ccccc3)c3ccccc23)n1` [III-93], 271%.

For the compound `OCc1cnc(-c2nn(Cc3ccccc3F)c3ccccc23)s1` [III-95], in assay [2] (setting [4]), the concentration for half-maximal inhibition (IC50) turned out to be 2.4 µM. This lies in the single-digit micromolar range. With `O=Cc1ccc(-c2nn(Cc3ccccc3)c3ccccc23)o1` [IV-138, 1-Benzyl-3-(5-formylfuran-2-yl)-indazole], the activation at 1 µM in assay [1] (embodiment IV) stood at 324%. Still for that read-out and setting: in the case of `O=[N+]([O-])c1ccc(-c2nn(Cc3ccccc3)c3ccccc23)o1` [IV-143, 1-Benzyl-3-(5-nitrofuran-2-yl)-indazole] it was more than 1000%. In assay [2] (Oryctolagus cuniculus, iv, embodiment IV), `N#Cc1cccc(Cn2nc(-c3ccc(CO)o3)c3ccccc32)c1` [IV-166] registered a half-maximal inhibitory concentration (IC50) of 18 µM.
